Reference: PMC4026384, “Antibacterial Activity of THAM Trisphenylguanide against Methicillin-Resistant Staphylococcus aureus” (PLoS ONE, 2014)
In brackets after ≈: the same amount, converted by molar mass. Entries after “also recorded” stand apart in the source; their conditions may differ. Where two headings read alike, the source gives them in different places.

Columns and labels:
[1] = system: E. coli K91; experiment: Bacterial viability assay; format: cell-based, Escherichia coli; conditions: one hour in PBS, CFU, ± SEM
Protocol: (§1) Supplementary file pone.0097742.s003.doc: Table S1 Bacterial viability assays. Bacteria were grown at 37°C to mid-log phase (OD600 ∼0.4). The bacteria were diluted to approximately 10^4 to 10^5 colony forming units (CFU) per milliliter and added to a solution of phosphate buffered saline (PBS, 16 mM phosphate, 0.14 M NaCl, pH 7.2) containing the compound at varied concentrations. Samples were incubated at 37°C for one hour and then plated on Luria Bertani (LB) agar at appropriate dilutions in PBS. The plates were incubated overnight at 37°C and colonies enumerated the following day. IC50s were calculated from graphs of CFU as a function of compound concentration. Chlorhexidine was used as a positive control. […] (DOC) Click here for additional data file.
(§2) Bacterial viability assays. Bacteria were grown at 37°C to mid-log phase (OD600 ~0.4). The bacteria were diluted to approximately 10^4 to 10^5 colony forming units (CFU) per milliliter and added to a solution of phosphate buffered saline (PBS, 16 mM phosphate, 0.14 M NaCl, pH 7.2) containing the compound at varied concentrations. Samples were incubated at 37°C for one hour and then plated on Luria Bertani (LB) agar at appropriate dilutions in PBS. The plates were incubated overnight at 37°C and colonies enumerated the following day. IC50s were calculated from graphs of CFU as a function of compound concentration. Chlorhexidine was used as a positive control.

[2] = system: MRSA USA300; experiment: Bacterial viability assay; format: cell-based, Staphylococcus aureus; conditions: one hour in PBS, CFU, ± SEM
Protocol: as §1, §2

[3] = system: A. baumannii ATCC 19606; experiment: Bacterial viability assay; format: cell-based, Acinetobacter baumannii; conditions: one hour in PBS, CFU, ± SEM
Protocol: as §1, §2

[4] = system: A. baumannii ATCC BAA1605; experiment: Bacterial viability assay; format: cell-based, Acinetobacter baumannii; conditions: one hour in PBS, CFU, ± SEM
Protocol: as §1, §2

[5] = system: S. aureus RN4220; experiment: Bacterial viability assay; format: cell-based, Staphylococcus aureus; conditions: one hour in PBS, CFU, ± SEM
Protocol: (§3) Supplementary file pone.0097742.s003.doc: Table S1 Bacterial viability assays. Bacteria were grown at 37°C to mid-log phase (OD600 ∼0.4). The bacteria were diluted to approximately 10^4 to 10^5 colony forming units (CFU) per milliliter and added to a solution of phosphate buffered saline (PBS, 16 mM phosphate, 0.14 M NaCl, pH 7.2) containing the compound at varied concentrations. Samples were incubated at 37°C for one hour and then plated on Luria Bertani (LB) agar at appropriate dilutions in PBS. The plates were incubated overnight at 37°C and colonies enumerated the following day. IC50s were calculated from graphs of CFU as a function of compound concentration. Chlorhexidine was used as a positive control. Included are those guanide (G), biguanide (BG), phenylguanide (ΦG) compounds that had some antibacterial activity in an initial screen at 30 and 100 µM, as well as their and parent amines. Compounds synthesized from 1,4-butanediamine, 1,6-hexanediamine, trisethylaminomelamine, trisbutylaminomelamine, and the dendrimer PAMAM (G0) were not active against E. coli, P aeruginosa, or S. aureus so they were not tested against the remaining bacteria (data not shown). (DOC) Click here for additional data file.
as §3, with “Bacterial” for “Supplementary file pone.0097742.s003.doc: Table S1 Bacterial”, “~0.4).” for “∼0.4).”, “μM,” for “µM,”, “shown).” for “shown). (DOC) Click here for additional data file.”

[6] = system: MRSA strain LAC, USA300; experiment: Minimum inhibitory concentration (microdilution); format: cell-based, Staphylococcus aureus; conditions: for MIC of control antibiotics: assay described in Material and Methods, controls of the MRSA leakage assay (Figure S2)
Protocol: (§4) Minimum inhibitory concentration (MIC) values were determined for those compounds showing the most antibacterial activity in the bacterial viability assays (see Supplemental Materials) against each of the strains of bacteria using a microdilution method in 96 well plates with LB media according to guidelines published by the British Society for Antimicrobial Chemotherapy. Minimum bactericidal concentrations (MBC) were determined by plating 10 µL and 100 µL from each well showing no signs of growth after overnight incubation of the MIC plates and determining the minimum concentration showing a 3-log reduction of viable bacteria. MIC and MBC were also determined in cation-adjusted Mueller-Hinton broth (Hardy Diagnostics, Santa Maria, CA) for some compounds and strains.

[7] = system: P. aeruginosa PA01; experiment: Bacterial viability assay; format: cell-based, Pseudomonas aeruginosa; conditions: one hour in PBS, CFU, ± SEM
Protocol: as §1, §2

[8] = system: HaCaT human keratinocytes; experiment: Cell toxicity assay (MTS); format: cell-based; conditions: for CC50: MTS assay, concentration which killed 50% of the cells
Protocol: (§5) The HaCaT cell line was grown in Epilife medium (MEPI500Ca) with human keratinocyte growth supplement (Invitrogen, San Diego, CA). Both types of cells were harvested using Tryspin/EDTA and diluted to 1×10^5 cells per well in a 96-well plate. Ten concentrations covering five orders of magnitude were tested with six replicates per concentration. […] MTS/PMS solution (Promega, Madison, WI) was added to the wells and absorbance was measured at 490 nm two to four hours later. Data was analyzed using GraphPad Prism version 5.0 (GraphPad Software, La Jolla, CA) using a variable slope inhibition dose response curve.

[9] = system: Pseudomonas aeruginosa (strain PA01); experiment: Minimum inhibitory concentration (microdilution); format: cell-based; conditions: P. aeruginosa PA01; LB media; median of at least 3 determinations
Protocol: as §4

[10] = system: Escherichia coli (strain K91); experiment: Minimum inhibitory concentration (microdilution); format: cell-based; conditions: E. coli K91; LB media; median of at least 3 determinations
Protocol: as §4

[11] = system: Staphylococcus aureus RN4220; experiment: Minimum inhibitory concentration (microdilution); format: cell-based; conditions: S. aureus RN4220; LB media; median of at least 3 determinations
Protocol: as §4

[12] = system: Enterococcus faecalis ATCC V583; experiment: Minimum inhibitory concentration (microdilution); format: cell-based; conditions: E. faecalis V583; LB media; median of at least 3 determinations
Protocol: as §4

[13] = system: Enterococcus faecalis MSU#10; experiment: Minimum inhibitory concentration (microdilution); format: cell-based; conditions: E. faecalis MSU#10; LB media; median of at least 3 determinations
Protocol: as §4

[14] = system: Acinetobacter baumannii ATCC 19606; experiment: Minimum inhibitory concentration (microdilution); format: cell-based; conditions: A. baumannii ATCC 19606; LB media; median of at least 3 determinations
Protocol: as §4

[15] = system: E. faecalis MSU#10; experiment: Bacterial viability assay; format: cell-based, Enterococcus faecalis; conditions: E. faecalis MSU#10, one hour in PBS, CFU, ± SEM, read-out: IC50
Protocol: as §1, §2

[16] = system: E. faecalis V583; experiment: Bacterial viability assay; format: cell-based, Enterococcus faecalis; conditions: one hour in PBS, CFU, ± SEM
Protocol: as §1, §2

[17] = system: MRSA; experiment: Cytoplasmic leakage & bacteriolysis assay; format: cell-based, Staphylococcus aureus; conditions: 1× to 4×MIC, over the 3 hour period
Protocol: Bacteria were cultured to mid-log phase (OD600 ∼0.4) in LB media with shaking. Bacteria were then harvested and resuspended in PBS to a concentration of ∼10^8 CFU/mL. […] Bacteria were monitored over time for cytoplasmic leakage via A260 measurements and for cell viability. For A260 readings, sample aliquots were centrifuged for 5 min at 10,000×g at room temperature to remove cellular debris. Viability was monitored by determining the CFU/mL during the first 3 hours post treatment as described above for the kill curve assays.

[18] = system: human breast cancer cell line MDA-MB-231; experiment: Cell toxicity assay (MTS); format: cell-based; conditions: MDA-231; for CC50: MTS assay, concentration which killed 50% of the cells
Protocol: as §5

[19] = Cell toxicity assay (MTS); format: cell-based, human; conditions: human, MTS assay, concentration which killed 50% of the cells
Protocol: as §5

[20] = Acinetobacter baumannii, ATCC19606, 1 h
[21] = Acinetobacter baumannii, ATCCBAA1605, 1 h
[22] = MDA-MB-231 breast cancer cells (ATCC HTB-26), MDA-231

SMILES	IC50 [1]	IC50 [2]	IC50 [3]	IC50 [4]	IC50 [5]	IC50 [7]	Relative to chlorhexidine (factor by which cytotoxicity was reduced) [8]	CC50 [8]	IC50 [15]	IC50 [16]	Relative to chlorhexidine (factor by which cytotoxicity was reduced) [18]	CC50 [18]	also measured
NCCCCCCCCNc1nc(NCCCCCCCCN)nc(NCCCCCCCCN)n1 [TOAM]	3.9 ± 0.3 µM	30 µM	3.9 ± 2 µM	1.3 ± 0.6 µM	> 100 µM	> 100 µM	2.1	4.1 µg/mL (≈ 8.07 µM)	77 ± 30 µM	> 100 µM			MIC ([6]; MRSA USA300, LB media, median of at least 3 determinations): 48 µg/mL (≈ 94.5 µM); MIC [9]: 64 µg/mL (≈ 126 µM); MIC [10]: >64 µg/mL; MIC [11]: >64 µg/mL; MIC [12]: >64 µg/mL; MIC [13]: >64 µg/mL; MIC [14]: >64 µg/mL
CNC(C)C1CCC(N)C(OC2C(N)CC(N)C(OC3OCC(C)(O)C(NC)C3O)C2O)O1 (stereo not drawn) [gentamicin]													change in A260 of culture supernatant (cytoplasmic leakage), control antibiotics [17]: no increase in A260; also recorded: Significant increases in A260 were not seen; MIC of control antibiotics [6]: 0.5 µg/mL
NCCCCCCNc1nc(NCCCCCCN)nc(NCCCCCCN)n1 [THAM]	> 100 µM	> 100 µM	> 100 µM	> 100 µM	> 100 µM	> 100 µM	100	200 µg/mL (≈ 472 µM)	> 100 µM	> 100 µM	>290	>770 µg/mL	
N=C(NCCCCN(CCCNC(=N)Nc1ccccc1)C(=N)Nc1ccccc1)Nc1ccccc1 [Spermidine-3ΦG]	3.2 ± 0.9 µM	> 100 µM	> 100 µM	> 100 µM	> 100 µM	> 100 µM	210	400 µg/mL (≈ 801 µM)	> 100 µM	> 100 µM	170	430 µg/mL (≈ 861 µM)	
N=C(N)NCCCCCCNc1nc(NCCCCCCNC(=N)N)nc(NCCCCCCNC(=N)N)n1 [THAM-3G]	31 ± 12 µM	> 100 µM	23 ± 14 µM	14 ± 4 µM	> 100 µM	14 ± 3 µM	33	63 µg/mL (≈ 115 µM)	> 100 µM	> 100 µM	29	74 µg/mL (≈ 135 µM)	
N=C(NCCCN(CCCCN(CCCNC(=N)Nc1ccccc1)C(=N)Nc1ccccc1)C(=N)Nc1ccccc1)Nc1ccccc1 [Spermine-4ΦG]	23 ± 16 µM	> 100 µM	≥ 100 µM	≥ 100 µM		> 100 µM	56	110 µg/mL (≈ 163 µM)	> 100 µM	> 100 µM	>43	>110 µg/mL	
NCCCCNCCCN [Spermidine]							>79				8.5		IC50 ([1]; Escherichia coli, 1 h): > 100 µM; IC50 ([2]; Staphylococcus aureus, 1 h): > 100 µM; IC50 [3, 20]: > 100 µM; IC50 [4, 21]: > 100 µM; IC50 ([5]; Staphylococcus aureus, 1 h): > 100 µM; IC50 ([7]; Pseudomonas aeruginosa, 1 h): > 100 µM; CC50 ([19]; HaCaT keratinocytes): > 150 µg/mL; CC50 [19, 22]: 22 µg/mL (≈ 151 µM); IC50 ([15]; Enterococcus faecalis, 1 h): > 100 µM; IC50 ([16]; Enterococcus faecalis, 1 h): > 100 µM
N=C(NCCCCCCCCNc1nc(NCCCCCCCCN)nc(NCCCCCCCCNC(=N)Nc2ccccc2)n1)Nc1ccccc1 [TOAM-2ΦG]	0.75 ± 0.09 µM	0.6 ± 0.32 µM	0.64 ± 0.19 µM	0.96 ± 0.02 µM	2.4 ± 0.1 µM	1.6 ± 0.4 µM	1.6	3.1 µg/mL (≈ 4.17 µM)	6.1 ± 4.9 µM	11 ± 3 µM			
NCCCNCCCCNCCCN [Spermine]							>110				3.7		IC50 ([1]; Escherichia coli, 1 h): > 100 µM; IC50 ([2]; Staphylococcus aureus, 1 h): > 100 µM; IC50 [3, 20]: ≥ 100 µM; IC50 [4, 21]: 79 ± 24 µM; IC50 ([5]; Staphylococcus aureus, 1 h): > 100 µM; IC50 ([7]; Pseudomonas aeruginosa, 1 h): ≥ 100 µM; CC50 ([19]; HaCaT keratinocytes): > 200 µg/mL; CC50 [19, 22]: 10 µg/mL (≈ 49.4 µM); IC50 ([15]; Enterococcus faecalis, 1 h): > 100 µM; IC50 ([16]; Enterococcus faecalis, 1 h): > 100 µM
CC1(C)S[C@@H]2[C@H](NC(=O)[C@H](N)c3ccccc3)C(=O)N2[C@H]1C(=O)O [Ampicillin]													change in A260 of culture supernatant (cytoplasmic leakage), control antibiotics [17]: no increase in A260; also recorded: Significant increases in A260 were not seen; MIC of control antibiotics [6]: 32 µg/mL
